Reference: patent US8647673B2, “Nanoparticles for imaging and treating chlamydial infection” (Wayne State University, priority 2007, dated 2014)
≈ marks a conversion by molar mass, not a printed value. Read-outs that look alike come from different tables or passages of the source.

Tested on: C. trachomatis (serovar K)
Assay: Microsusceptibility: chlamydial inclusion counts in infected McCoy cells
Format: cell-based
Conditions: for change in MIC50 with length of treatment: 24 vs 48 hrs incubation, treated immediately following infection; for MIC50: Chlamydia trachomatis; for sensitivity (decrease in inclusion number with increasing dose): drug added 24 or 48 hours post infection, 24 hours in presence of drug
Procedure: FIG. 19. […] McCoy cells were infected with C trachomatis serovar K at MOI=1. […] Drugs were administered either encapsulated in nanoparticles (top panel) or dissolved in growth medium (bottom panel). Chlamydial viability was determined by counting the number of inclusions/well.
Cells and growth of Chlamydia. McCoy cells were seeded onto 96-well microtitre plates at a concentration of 2×10^5 cells per well and allowed to adhere overnight at 37° C. and 5% CO2 in Eagles MEM supplemented with 10% FBS and […] Glutamine. The following day, the cells were inoculated with C. trachomatis (UW-31, serovar K) at 10^4 IFU/well and centrifuged at 2500 rpm for 1 hr at room temperature, followed by incubation at 37° C. for 1 hr. The inoculum was then aspirated and replaced with the appropriate two fold dilution of free drug or encapsulated nanoparticles prepared in antibiotic-free growth media containing 0.06% glucose and 1 μg/ml cyclohexamide. The cells were incubated in the presence of drug for 24 or 48 hrs post infection and then fixed with 100% MeOH. Chlamydial inclusions were detected by immunofluorescence using BioRad Pathfinder® according to the manufacturer's instructions and the plates subsequently stored protected from light at 4° C.
McCoy cells were seeded onto 96-well microtiter plates and then infected the next day with 10^4 IFU/well C. trachomatis (serovar K).
McCoy cells were seeded onto 96-well microtiter plates and then infected the next day with 10^4 IFU/well C. trachomatis (serovar K). […] The mean inclusion number was plotted as a function of concentration.
McCoy cells (2×10^5/well) were seeded onto 96-well microtitre plates and then infected the next day with 10^4 IFU/well C. trachomatis (serovar K). […] The cells were incubated for 24 hours in the presence of drug and then fixed. Based on previous experiments we refined the concentrations ranges for each of the two free drugs and encapsulated nanoparticles.
McCoy cells (2×10^5/well) were seeded onto 96-well microtitre plates and then infected the next day with 10^4 IFU/well C. trachomatis (serovar K). […] The cells were incubated for 24 hours in the presence of drug and then fixed. […] We, therefore, extended the concentration ranges for the two drugs.
McCoy cells (2×10^5/well) were seeded onto 96-well microtitre plates and then infected the next day with 10^4 IFU/well C. trachomatis (serovar K). […] The cells were incubated for 24 hours or 48 hours in the presence of drug and then fixed.
Free and nanoparticle-encapsulated antibiotics added at either t0 (time of infection) or after 24 hr of infection (t24), were compared along with blank nanoparticles as controls.

[1] = 24 h, added immediately following infection, 24 hours in the presence of drug (Example 9), read-out: MIC50
[2] = treated individually, MOI=1, drug added at overlay, nanoparticles not conjugated to folic acid (Example 16), read-out: MIC50

| change in MIC50 with length of treatment | MIC50 [1] | MIC50 (in the presence of 0.004 μg/ml rifampin (Example 16), read-out: MIC50 of azithromycin) | MIC50 [2] | MIC50 (24 h, drug added at 24 hpi and left on for 24 hours, read-out: MIC50) | MIC50 (read-out: MIC50 of rifampin, in the presence of 0.016 μg/ml azithromycin (Example 16)) | SMILES | sensitivity (decrease in inclusion number with increasing dose) |
| --- | --- | --- | --- | --- | --- | --- | --- |
| no significant change in MIC50 | 0.04 µg/mL | 0.016 µg/mL | 0.032 µg/mL (≈ 0.0427 µM) | – | – | CC[C@H]1OC(=O)[C@H](C)[C@@H](O[C@H]2C[C@@](C)(OC)[C@@H](O)[C@H](C)O2)[C@H](C)[C@@H](O[C@@H]2O[C@H](C)C[C@H](N(C)C)[C@H]2O)[C@](C)(O)C[C@@H](C)CN(C)[C@H](C)[C@@H](O)[C@]1(C)O [azithromycin] | marked insensitivity |
| no significant change in MIC50 | 0.005 µg/mL | – | 0.008 µg/mL (≈ 0.00972 µM) | > 0.08 µg/mL | 0.002 µg/mL | CO[C@H]1/C=C/O[C@@]2(C)Oc3c(C)c(O)c4c(O)c(c(/C=N/N5CCN(C)CC5)c(O)c4c3C2=O)NC(=O)/C(C)=C\C=C\[C@H](C)[C@H](O)[C@@H](C)[C@@H](O)[C@@H](C)[C@H](OC(C)=O)[C@@H]1C [rifampin] | marked insensitivity |
